The record followed here is patent US20150313896A1, “METHOD FOR TREATING CELL PROLIFERATION DISORDERS” (Galderma Research & Development, priority 2013, published 2015).

In assay [1] the test system is Albino hairless SKH1-hr mice. The settings on record: for Skin Thickening: number of mice with observation / Skin Thickening: total number of observations: 40 weeks. The method, then:
Albino hairless SKH1-hr mice (36/sex/group) were treated for 40 weeks with UVR and brimonidine gel or vehicle according to the design in table 11. […] Topical treatments were performed approximately one hour before UVR on Monday, Wednesday and Friday of each week and approximately one hour after UVR Tuesday and Thursday of each week.
*Monday, Wednesday and Friday of each week: exposure to UVR approximately one hour after test item application. Tuesday and Thursday of each week: exposure to UVR approximately one hour before test item application.
The UVR exposure was 600 RBU/week for all test groups in the table.

Assay [2] has as its system SKH1 mice. In words: UVB-induced epidermal hyperplasia: EdU detection of proliferating keratinocytes. The format is in vivo. The method, then:
(§1) SKH1 mice were treated and exposed to UVB irradiation. The back skin of the mice was exposed to 120 mJ/cm^2 UVB using the Biospectra system equipped with UVB sunlamps with a maximum emission peak at 312 nm. Irradiations were performed under isoflurane gaseous anesthesia. Mice were treated with vehicle (PEG400/EtOH/PHY (30/20/50) p/p) or brimonidine tartrate at 0.2% or 2%, by weight, administrated by topical application (100 μl) on a 10 cm^2 area on the upper part of the back using a micropipette. The area is located on the upper part of the back to prevent the animals from liking themselves. Three applications were performed according to the following two treatment schedules:
(§2) (a) pre-treatment: one application 1 hour prior to UVB irradiation, followed by two more applications 23 hours apart;
(§3) (b) post-treatment: one application immediately following the UVB irradiation, followed by two more applications 23 hours apart.
(§4) A compound reference, i.e., an EGFR inhibitor at 4%, by weight, in EtOH/H2O (76/24) was also administrated according to the pre-treatment schedule.
One hour after the third topical treatment and one hour before euthanasia, mice received an intraperitoneal (i.p.) injection of 5-ethynyl-2′-deoxyuridine (EdU) at 100 mg/kg. After mouse euthanasia using cervical dislocation, the back skin was removed and immediately fixed in formol. […]
For EdU detection, two or three sections of 7 μm per animal were submitted to EdU staining. […] Nuclei were also stained with 4′,6-diamidino-2-phenylindole (DAPI) diluted at 5 mg/mL in Vectashield Hard Set Mounting medium for Fluorescence (ref: H-1400 Vector Laboratories). The number of keratinocytes stained with Alexa Fluor® 594 was counted from digital images (NanoZoomer C9600-12, Hamamatsu Photonics K.K) and the epidermis length of each section determined using an in house dedicated tool.
Data were analyzed using unpaired t test for validation of the UVB irradiation and one-way ANOVA with Dunnett's multiple comparison test for the analysis of the treatment effect (Prism 6; GraphPad Software Inc., San Diego, Calif., USA). […]

The subject of assay [3] is SKH1 mice. As to the kind of experiment: UVB-induced epidermal hyperplasia: epidermis thickness (H&E). The assay is classed as in vivo. The settings on record: for Decrease of the epidermal thickness: post-treatment schedule (immediately after UVB, then twice 23 h apart). The method, then:
as §1, §2, §3, §4
One hour after the third topical treatment and one hour before euthanasia, mice received an intraperitoneal (i.p.) injection of 5-ethynyl-2′-deoxyuridine (EdU) at 100 mg/kg. After mouse euthanasia using cervical dislocation, the back skin was removed and immediately fixed in formol. The formol-fixed skin samples were embedded in paraffin and then submitted to immunohistological studies for epidermal thickness and EdU detection.
For epidermal thickness, two sections of 7 μm per animal were stained in hematoxylin and eosin (H&E) stain. Skin histology and the epidermis thickness were analyzed using image analysis (mScope 3.9, Aurora mScope) on scanned slide pictures (NanoZoomer C9600-12, Hamamatsu Photonics K.K).
Data were analyzed using unpaired t test for validation of the UVB irradiation and one-way ANOVA with Dunnett's multiple comparison test for the analysis of the treatment effect (Prism 6; GraphPad Software Inc., San Diego, Calif., USA). A p value of less than 0.05 was regarded as significant.

The structures appear in SMILES notation. Where a name gives a salt, the structure may show the parent alone. Read-outs that look alike come from different tables or passages of the source.

For the compound `Brc1c(NC2=NCCN2)ccc2nccnc12` [brimonidine tartrate, (5-Bromo-quinoxalin-6-yl)-(4,5-dihydro-1H-imidazol-2-yl)-amine], the “UV-induced skin thickness, statistical effect” value in assay [1] (0.18% (w/w) topical) is “did not statistically reduce”; in assay [1] (1% (w/w) topical) it was “statistically reduced”; in assay [1] (2% (w/w) topical), “statistically reduced”. Also, the “Skin Thickening: number of mice with observation” value worked out at 32 in assay [1] (female mice (36 tested), 0.18% brimonidine tartrate gel topical, UVR 600 RBU/week); 25 in assay [1] (female mice (36 tested), 1% brimonidine tartrate gel topical, UVR 600 RBU/week); 23 in assay [1] (female mice (36 tested), 2% brimonidine tartrate gel topical, UVR 600 RBU/week); 34 in assay [1] (male mice (36 tested), 0.18% brimonidine tartrate gel topical, UVR 600 RBU/week); 27 in assay [1] (male mice (36 tested), 1% brimonidine tartrate gel topical, UVR 600 RBU/week); 24 in assay [1] (male mice (36 tested), 2% brimonidine tartrate gel topical, UVR 600 RBU/week). The “Skin Thickening: total number of observations” value is listed as 521 in assay [1] (female mice, 0.18% brimonidine tartrate gel topical, UVR 600 RBU/week); 374 in assay [1] (female mice, 1% brimonidine tartrate gel topical, UVR 600 RBU/week); 381 in assay [1] (female mice, 2% brimonidine tartrate gel topical, UVR 600 RBU/week); 514 in assay [1] (male mice, 0.18% brimonidine tartrate gel topical, UVR 600 RBU/week); 392 in assay [1] (male mice, 1% brimonidine tartrate gel topical, UVR 600 RBU/week); 367 in assay [1] (male mice, 2% brimonidine tartrate gel topical, UVR 600 RBU/week). In addition, the “UV-induced skin thickening, effect in words” value in assay [1] (topical 0.18%, 1% and 2%, UVR 600 RBU/week) is “dose-dependent reduction”. Further, the “Reduction of the number of EdU positive cells” value in assay [2] (0.2% topical, post-treatment schedule) was 25%; in assay [2] (2% topical, post-treatment schedule) it was −64%; in assay [2] (2% topical, pre-treatment schedule), −59%. The “Decrease of the epidermal thickness” value in assay [3] (0.2% (w/w) topical) is −16%; in assay [3] (2% (w/w) topical) it was −32%. Besides, the “Inhibition of UVB-induced acanthosis (epidermis thickness)” value in assay [3] (0.2% (w/w) topical, pre-treatment schedule) is listed as “no effect”; in assay [3] (2% (w/w) topical, pre-treatment schedule (1 h before UVB 120 mJ/cm^2, then twice 23 h apart)), −23%.
